For one series, the target named is T1, ΔN10IPO (Ipomoea batatas, UniProt P93193).
T1 construct: gene IPO; N-terminal residues 1-10 removed, Histrap-purified, expressed in E. coli BL21(DE3) from pTZ18UH-ΔN10IPO
Briefly: isothermal titration calorimetry, one-site fit. It is filed as binding. The note with it: 20 mM Tris-HCl, 150 mM NaCl pH 7.0, 25 °C; n fixed at 1.0; read-out: K A(10^3 M^-1) (converted). The source says: isothermal titration calorimetry, one-site fit on ΔN10IPO
For orientation: In ITC the heat of successive injections is recorded.

The target in the next series is T2, IPO (Ipomoelin) (Ipomoea batatas, UniProt P93193).
T2 construct: full length (residues 1-154), His-tagged, expressed in E. coli BL21(DE3) from pTZ18UH-IPO
T2 sequence (P93193 1-154): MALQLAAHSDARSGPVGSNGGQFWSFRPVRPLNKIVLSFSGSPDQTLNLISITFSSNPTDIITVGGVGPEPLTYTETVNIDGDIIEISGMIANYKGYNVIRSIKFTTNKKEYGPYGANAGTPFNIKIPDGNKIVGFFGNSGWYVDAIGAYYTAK
Briefly: isothermal titration calorimetry, one-site fit. The format is binding. The note with it: for Kd: read-out: K A(10^3 M^-1) (converted).

Series [1] deals with the molecule itself. Kind of series: crystal structure; hanging-drop vapor diffusion at room temperature; apo IPO and co-crystals with Me-Man, Me-Glc and Me-Gal in four space groups; tetramer in the asymmetric unit or by symmetric operations; interface analysed on IPO–Me-Glc with PDBe PISA.
Where [2] appears, read: 20 mM Tris-HCl, 150 mM NaCl pH 7.0, 25 °C, n fixed at 1.0.

Where two headings read alike, the source gives them in different places.

As to `CO[C@H]1O[C@H](CO)[C@@H](O)[C@H](O)[C@H]1O` [Me-Glc, methyl α-D-glucopyranoside], the Kd is 73.5 µM at ΔN10IPO and 498 µM on IPO (Ipomoelin) (setting [2]). On to `OC[C@H]1OC(O)[C@@H](O)[C@@H](O)[C@@H]1O` (stereo partly drawn) [Man], for which the KA at IPO (Ipomoelin) (setting [2]) was 1.05×10^2. Regarding `OC[C@H]1OC(O)[C@H](O)[C@@H](O)[C@H]1O` (stereo partly drawn) [Gal], on IPO (Ipomoelin) (setting [2]), the KA is 0.57×10^2. On to `OC[C@H]1OC(O)[C@H](O)[C@@H](O)[C@@H]1O` (stereo partly drawn) [Glc], for which, on IPO (Ipomoelin) (setting [2]), the KA is given as 0.32×10^2. On to `CO[C@H]1O[C@H](CO)[C@@H](O)[C@H](O)[C@@H]1O` [Me-Man, methyl α-D-mannopyranoside], for which the figures for the Kd on ΔN10IPO and at IPO (Ipomoelin) (setting [2]) were 26.4 µM and 142 µM, respectively. As to `CO[C@H]1O[C@H](CO)[C@H](O)[C@H](O)[C@H]1O` [Me-Gal, methyl α-D-galactopyranoside], the Kd on IPO (Ipomoelin) is 244 µM.

B1: Ipomoelin (IPO) (natural protein, UniProt P93193 1-154, looked up)
chain: MALQLAAHSDARSGPVGSNGGQFWSFRPVRPLNKIVLSFSGSPDQTLNLISITFSSNPTDIITVGGVGPEPLTYTETVNIDGDIIEISGMIANYKGYNVIRSIKFTTNKKEYGPYGANAGTPFNIKIPDGNKIVGFFGNSGWYVDAIGAYYTAK
notes: Ipomoelin (IPO), Jacalin-related lectin of sweet potato (Ipomoea batatas cv. Tainung 57); gene GenBank D89823.1, protein GenBank BAA14024.1; monomer of residues 1 to 154; recombinant IPO with a His tag is 17.3 kDa as a monomer and 69.2 kDa as a tetramer; also called wildtype IPO; native IPO; source: E. coli BL21 (DE3), purified (Histrap FF)
As a reminder, the stoichiometry N is a count of units in the complex or per binding partner. On to B1, for which the “stoichiometry N” value in series [1] came out at 4.

Values taken from publication PMC3394770, “Ipomoelin, a Jacalin-Related Lectin with a Compact Tetrameric Association and Versatile Carbohydrate Binding Properties Regulated by Its N Terminus” (PLoS ONE, 2012).
